Assay results: US9770481B2, “Inhibitors of NOX1” (UNIVERSITY OF PITTSBURGH—OF THE COMMONWEALTH SYSTEM OF …, priority 2011, dated 2017)

Tests used:
Assay type in all cases: cell-based
Nox5 = biological target: T1, Nox5 (Homo sapiens, UniProt Q96PH1); assay: O2- production by lysates of HEK293 cells stably transfected with Nox5 oxidase, Ca2+-stimulated (cytochrome c); conditions: 0.1 nM to 10,000 nM
T1 construct: expressed in transfected cells; cell lysates
T1 sequence (Q96PH1 1-765): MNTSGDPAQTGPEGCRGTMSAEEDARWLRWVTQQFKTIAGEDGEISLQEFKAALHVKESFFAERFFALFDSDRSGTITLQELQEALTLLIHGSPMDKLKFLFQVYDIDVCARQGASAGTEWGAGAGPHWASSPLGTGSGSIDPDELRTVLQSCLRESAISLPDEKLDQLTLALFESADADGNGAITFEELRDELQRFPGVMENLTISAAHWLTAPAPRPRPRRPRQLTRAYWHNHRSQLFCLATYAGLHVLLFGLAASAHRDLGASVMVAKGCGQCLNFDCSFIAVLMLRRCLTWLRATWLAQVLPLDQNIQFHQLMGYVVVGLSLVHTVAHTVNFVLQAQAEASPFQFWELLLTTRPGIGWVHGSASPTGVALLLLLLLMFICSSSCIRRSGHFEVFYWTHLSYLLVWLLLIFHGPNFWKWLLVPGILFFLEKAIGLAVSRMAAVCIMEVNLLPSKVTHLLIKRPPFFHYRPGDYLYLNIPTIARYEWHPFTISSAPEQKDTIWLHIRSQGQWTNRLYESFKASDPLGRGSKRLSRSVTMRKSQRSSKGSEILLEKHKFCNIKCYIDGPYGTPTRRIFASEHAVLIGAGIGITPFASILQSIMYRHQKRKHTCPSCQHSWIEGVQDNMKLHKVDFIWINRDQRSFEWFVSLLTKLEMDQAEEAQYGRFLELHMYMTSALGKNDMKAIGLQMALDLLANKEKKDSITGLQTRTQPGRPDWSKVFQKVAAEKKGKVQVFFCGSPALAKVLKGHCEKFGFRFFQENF
Experimental: To test whether the inhibitory effect of NoxA1ds is specific to Nox1, the effect of NoxA1ds was tested on cells expressing Nox2, Nox4, and Nox5 as well as on purified xanthine oxidase enzyme. To test the effect on Nox2, production of O2^− was measured by the reduction of cytochrome c by cell lysates from COS cells transiently transfected with the Nox2 oxidase, stimulated with LiDS, and the treated with increasing concentrations of NoxA1ds (from 0.1 nM to 10,000 nM). Similarly, production of H2O2 was measured by Amplex red fluorescence by COS cells transiently transfected with the Nox4 oxidase and treated with increasing concentrations of NoxA1ds (from 100 nM to 10,000 nM). Production of O2^− was also measured by the reduction of cytochrome c by cell lysates from HEK293 cells stably transfected with the Nox5 oxidase stimulated with Ca^2+, and treated with increasing concentrations of NoxA1ds (from 0.1 nM to 10,000 nM). Finally, production of O2^− was measured by Electron Paramagnetic Resonance from pure xanthine oxidase enzyme preparations, stimulated with hypoxanthine and treated with increasing concentrations of NoxA1ds (from 0.1 nM to 10,000 nM).

[1] = test system: rat aortic smooth muscle cells; assay: Stretch-induced migration of rat aortic smooth muscle cells (wound closure); conditions: 10 μM added every four hours; cyclic stretch 24 hrs
Experimental: The effect on NoxA1ds on stretch-induced migration of rat aortic smooth muscle cells was studied. Cell monolayer cultures with an introduced gap (“wound”) were subjected to 24 hrs of cyclic stretch (10%, 1 Hz) with 10 μM NoxA1ds or SCRMB control being added every four hours. Cell migration may be assessed as the distance the wound has closed, where greater […] corresponds to greater migration. Cell migration increased as a result of cyclic stretch.

[2] = biological target: T2, interaction between Nox1 and NoxA1 (Homo sapiens, UniProt Q9Y5S8); assay: FRET between Nox1-YFP and NoxA1-CFP in transfected COS22 cells; conditions: 10 μM, one hour prior to imaging
T2 construct: expressed in transfected cells; host or cells: COS22
T2 sequence (Q9Y5S8 1-564): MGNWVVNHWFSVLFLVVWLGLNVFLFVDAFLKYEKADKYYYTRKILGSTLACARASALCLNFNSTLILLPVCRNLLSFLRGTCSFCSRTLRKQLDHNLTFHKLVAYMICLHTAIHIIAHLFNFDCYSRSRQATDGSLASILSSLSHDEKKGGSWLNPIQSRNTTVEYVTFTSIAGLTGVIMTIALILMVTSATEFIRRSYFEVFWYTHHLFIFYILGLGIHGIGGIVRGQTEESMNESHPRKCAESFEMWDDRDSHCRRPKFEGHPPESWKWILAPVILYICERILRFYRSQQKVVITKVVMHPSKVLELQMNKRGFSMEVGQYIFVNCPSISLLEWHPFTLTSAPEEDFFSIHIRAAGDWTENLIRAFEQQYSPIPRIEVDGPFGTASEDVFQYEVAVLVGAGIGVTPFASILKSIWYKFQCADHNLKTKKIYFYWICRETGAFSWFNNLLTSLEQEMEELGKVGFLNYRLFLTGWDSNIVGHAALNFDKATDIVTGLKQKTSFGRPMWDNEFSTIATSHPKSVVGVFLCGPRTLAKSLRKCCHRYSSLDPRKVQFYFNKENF
T2 sequence (P13498 2-195 partner limits assumed): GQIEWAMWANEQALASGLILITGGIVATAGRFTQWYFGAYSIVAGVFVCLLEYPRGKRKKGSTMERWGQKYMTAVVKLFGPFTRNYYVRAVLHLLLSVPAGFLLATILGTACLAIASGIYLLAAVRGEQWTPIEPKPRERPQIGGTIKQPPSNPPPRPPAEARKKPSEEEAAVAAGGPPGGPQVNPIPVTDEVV
Experimental: FRET (fluorescence resonance energy transfer) studies were performed to study the effect of NoxA1ds on the interaction between Nox1 and NoxA1: In particular, FRET between Nox1-YFP and NoxA1-CFP transfected COS22 cells in the presence or absence of 10 μM NoxA1ds or SCRMB was evaluated. Relative fluorescence of CFP is green while YFP is red. Traces underneath the images indicate fluorescent intensities of CFP and YFP underneath the arrow overlaid on each cell.

H-EPVDALGKAKV-NH2 [NoxA1ds, [NH3^+]-EPVDALGKAKV-[CONH2]]
Inhibitory effect on Nox5 O2- production (Nox5): did not exhibit a significant inhibitory effect
Stretch-induced cell migration (wound closure) [1]: reduced migration to levels observed in non-stretched cells
CFP fluorescence after photobleaching of Nox1-YFP (FRET) [2]: did not result in a concomitant increase in CFP fluorescence
